Reference: ChEMBL document CHEMBL1201862, “PubChem BioAssay data set” (2004)
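Five concentrations, 48 hours, 96-well plates. GI50 marks 50% less growth.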 Calls of active or inactive are those of the source. No stated cut-off is given here; in the data, active = GI50 up to about 1.1 µM and inactive = higher.

Experiments:
Test in all cases: inhibition of tumour cell growth, NCI panel, 48 h
[1] = system: OVCAR-4
[2] = system: RPMI-8226
[3] = system: K562
[4] = system: A498
[5] = system: Hs-578T
[6] = system: T47D
[7] = system: IGROV-1
[8] = system: HCT-15
[9] = system: SK-MEL-5
[10] = system: CAKI-1
[11] = system: NCI/ADR-RES
[12] = system: NCI-H460
[13] = system: SF-539
[14] = system: UACC-62
[15] = system: KM12
[16] = system: HCC 2998
[17] = system: NCI-H522
[18] = system: TK-10
[19] = system: HOP-92
[20] = system: SF-295

Compound	GI50 [1]	GI50 [2]	GI50 [3]	GI50 [4]	GI50 [5]	GI50 [6]	GI50 [7]	GI50 [8]	GI50 [9]	GI50 [10]	GI50 [11]	GI50 [12]	GI50 [13]	GI50 [14]	GI50 [15]	GI50 [16]	GI50 [17]	GI50 [18]	GI50 [19]	GI50 [20]
C=C1c2nc3ccccc3n2C=C(c2ccc(C)cc2)N1c1ccccc1	22.4 µM (inactive)	2.3 µM (inactive)	1.11 µM (active)	4.53 µM (inactive)	4.21 µM (inactive)	3.24 µM (inactive)	3.33 µM (inactive)	1.47 µM	2.13 µM (inactive)	20.5 µM (inactive)	1.79 µM (inactive)	2.88 µM (inactive)	2.44 µM (inactive)	2.86 µM (inactive)	1.1 µM (active)	2.26 µM (inactive)	0.617 µM (active)	18.8 µM (inactive)	27.1 µM (inactive)	1.88 µM (inactive)
CC(C)OP(=O)(OC(C)C)c1c(N)n[nH]c1Nc1ccccc1	> 100 µM (inactive)	> 100 µM (inactive)	> 100 µM (inactive)	> 100 µM (inactive)	33 µM (inactive)	> 100 µM (inactive)	> 100 µM (inactive)	> 100 µM	> 100 µM (inactive)	> 100 µM (inactive)	> 100 µM (inactive)	> 100 µM (inactive)	> 100 µM (inactive)	> 100 µM (inactive)	> 100 µM (inactive)	> 100 µM (inactive)	> 100 µM (inactive)	> 100 µM (inactive)	> 100 µM (inactive)	> 100 µM (inactive)
O=[N+]([O-])c1cccc2nc3ccccc3c(NCCO)c12	0.000719 µM (active)	0.000682 µM (active)	0.000237 µM (active)	0.00383 µM (active)	0.00684 µM (active)	0.000611 µM (active)	0.00269 µM (active)	0.00133 µM	0.00286 µM (active)	0.00323 µM (active)	0.00566 µM (active)	0.000767 µM (active)	0.00262 µM (active)	0.00237 µM (active)	0.00366 µM (active)	0.00166 µM (active)	0.00248 µM (active)	0.00269 µM (active)	0.0016 µM (active)	0.00467 µM (active)
CCNCC(=O)O[C@]1(CC)C(=O)OCc2c1cc1n(c2=O)Cc2cc3ccccc3nc2-1	2.25 µM (inactive)	0.237 µM (active)	0.598 µM (active)	0.661 µM (active)	25.8 µM (inactive)	0.203 µM (active)	2.2 µM (inactive)	1.85 µM	0.267 µM (active)	0.0559 µM (active)	0.114 µM (active)	0.0277 µM (active)	0.0466 µM (active)	0.0468 µM (active)	0.778 µM (active)	1.04 µM (active)	0.221 µM (active)	7.4 µM (inactive)	1.16 µM (inactive)	0.0586 µM (active)
COc1ccc(/C=C2\C(=O)NC(=O)c3ccccc32)cc1OC	34.6 µM (inactive)	5.47 µM (inactive)	3.15 µM (inactive)	> 66.5 µM (inactive)	53.5 µM (inactive)	> 100 µM (inactive)	13.8 µM (inactive)	20.5 µM	37.7 µM (inactive)	26.7 µM (inactive)	42.2 µM (inactive)	45.6 µM (inactive)	9.12 µM (inactive)	25.6 µM (inactive)	39.4 µM (inactive)	> 46.6 µM (inactive)	16.2 µM (inactive)	> 100 µM (inactive)	7.96 µM (inactive)	52.2 µM (inactive)
